Experimental data reported in US5670538A, “Use of prodelphinidins for obtaining medicaments intended for the treatment of arthrosis” (Laboratoires Dolisos, priority 1992, dated 1997).

Tested on: human articular chondrocytes
Assay: Radioimmunoassay of type II collagen (coll. II) produced in tridimensional culture of human chondrocytes
Type: cell-based
From the text: The model used for testing the proanthocyanidols, namely the tridimensional culture of human chondrocytes allows chondrorepair to be quantified by the production of matrix substances: type II collagen, proteoglycans, and chondroresorption by the reduction in the levels of prostaglandin E2 and of OH° and O°2 type free radicals produced.
1. Tridimensional culture of human chondrocytes
The technique used has been described in detail (Bassleer et al., 1986).
Briefly, human articular chondrocytes are cultivated in DMEM (Dulbecco's Modification of Eagle's Medium--ICN--Gand, Belgium) with either Ultroser G 1% (GIBCO, Gand, Belgium) or 10% of foetal calf serum (ICN--Gand--Belgium), and 50 μg of ascorbic acid/ml added to it. The cartilage originates from the apparently normal zone of heads of human femur suffering from arthrosis, immediately after an operation carried out to insert a total hip prosthesis; it can also originate from the head of a healthy femur, but which has undergone a traumatism and has had to be replaced. This cartilage is then digested by clostridial collagenase 1 mg/ml (Boehringer-Mannheim, Germany) in a buffer (NaCl 120 mM, CaCl2 1 mM, KCl 5 mM, KH2 PO4 1 mM, NaHCO3 25 mM, glucose 2 mM and Hepes 30 mM, pH 7.4) for 24 hours. After 6 successive washings and centrifugations, the chondrocytes, isolated from their matrix, are cultured in flasks (10^6 cells/2 ml of culture medium) placed on a gyrator (10 rpm). The cultures are kept at 37° C. in an atmosphere of air 95%-CO2 5% (Bassleer et al., 1986). Cultivated under these conditions, after 4 to 5 days the chondrocytes form a tridimensional cluster in each flask. These clusters, which at first have a flocculent appearance, then tend to condense during the culture. After two weeks, their diameter is, in general, from 1 to 2 mm.
The fresh weight of the clusters increases with the duration of the culture, above all during the few first days.
3. Radioimmunoassay of type II collagen (coll. II)
The method for the radioimmunoassay of coll. II has been described in detail (Henrotin et al., 1990). The coll. II is extracted from human articular cartilage according to the technique described by Herbage et al. (1977). The antiserum against coll. II was obtained from rabbits according to the technique of Vaitukaitis et al. (1971).
The assay is carried out by sequential saturation. In the first instance, the radioimmunoassay is carried out in a 0.3 ml volume consisting of 0.2 ml of incubation buffer (PBS-50 mM PO4, 300 mM NaCl, 5 g/l BSA (W/V), 6.7 mM sodium azide, pH 7.4) containing the reference coll. II (0.5 to 500 ng) or the sample to be assayed and 0.1 ml of anti-coll. II antiserum from guinea pigs diluted to 1/5000 (24 hours at 4° C.). In the second instance, 0.1 ml of ^125 I-coll. II tracer labelled according to the iodogenic technique (Salacynski et al., 1979 and diluted so as to obtain 20,000 cpm/0.1 ml) is added. After 24 hours at 4° C., the collagen-antibody complexes are separated from the free radioactive coll. II by the double antibody system (Franchimont et al. 1983). Sequential saturation gives a sensitivity of 3 ng/tube. The accuracy of the method is 10%. The coefficients of the intra- and inter assay variation are 10% and 20% respectively.
The assay is specific to human articular type II collagen.
No cross reaction is obtained with bovine collagen of type I, III or IV.
The culture media are stored at -20° C. in the presence of enzymatic inhibitors (Oegema et al., 1975). These media are assayed by the radio immunological method without any treatment beforehand. The chondrocyte clusters are washed and dissociated with ultrasonics according to the method described for the assay of the PGs. After centrifugation (1500 rpm, 10 minutes), the residue is extracted using 500 mM acetic acid under agitation for 24 hours at 4° C. The supernatant of the homogenate and the extract of the residue are mixed together and assayed after equilibration at pH 7.4 using 4M NaOH.
The recovery of coll. […]

For Oc1cc(O)c2c(c1)O[C@H](c1cc(O)c(O)c(O)c1)[C@@H](O)[C@@H]2c1c(O)cc(O)c2c1O[C@H](c1cc(O)c(O)c(O)c1)[C@@H](O)[C@@H]2c1c(O)cc(O)c2c1O[C@H](c1cc(O)c(O)c(O)c1)[C@@H](O)C2 [Substance Ic, GC-(4 alpha→8) GC-(4 a→8)-GC], the “Average concentrations (m ± SD) of type II collagen in the clusters of chondrocytes at the end of 12 days of culture” value (shortened to “Average concentrations (m ± SD)”) (1% Ultroser G, 1 μg/ml) was 81 ± 6 ng per μg of DNA, the “Collagen II in the clusters over 12 days, effect in words” value (1% Ultroser G, 1 μg/ml) was “stimulant” and the “Cumulative release of coll.II over 12 days, Abs” value (1% Ultroser G, 1 μg/ml) was 256 ng/μg DNA/12 days. The “Type II collagen released in the culture medium, effect in words” value (1% Ultroser G, 1 μg/ml) was “significant effect”, the “Average concentrations (m ± SD)” value (1% Ultroser G, 10 μg/ml) was 94 ± 7 ng per μg of DNA and the “Cumulative release of coll.II over 12 days, Abs” value (1% Ultroser G, 10 μg/ml) was 292 ng/μg DNA/12 days. For the same molecule, the “Average concentrations (m ± SD)” value (1% Ultroser G, 100 μg/ml) was 121 ± 13 ng per μg of DNA, the “Cumulative release of coll.II over 12 days, Abs” value (1% Ultroser G, 100 μg/ml) was 337 ng/μg DNA/12 days and the “Coll. II released in the culture medium” value (1% Ultroser G, culture time 0-4 days, 1 μg/ml) was 149.4 ± 8.7 ng/μg DNA/96 h. The “Coll. II released in the culture medium” value (1% Ultroser G, culture time 0-4 days, 10 μg/ml) was 162 ± 11 ng/μg DNA/96 h, the “Coll. II released in the culture medium” value (1% Ultroser G, culture time 0-4 days, 100 μg/ml) was 182 ± 5.6 ng/μg DNA/96 h and the “Coll. II released in the culture medium” value (1% Ultroser G, culture time 0-8 days (so in the source), 1 μg/ml) was 65.8 ± 7.4 ng/μg DNA/96 h. For the same molecule, the “Coll. II released in the culture medium” value (1% Ultroser G, culture time 0-8 days (so in the source), 10 μg/ml) was 70.5 ± 7.1 ng/μg DNA/96 h, the “Coll. II released in the culture medium” value (1% Ultroser G, culture time 0-8 days (so in the source), 100 μg/ml) was 93.8 ± 10.5 ng/μg DNA/96 h and the “Coll. II released in the culture medium” value (1% Ultroser G, culture time 0-12 days (so in the source), 1 μg/ml) was 41.2 ± 4.6 ng/μg DNA/96 h. The “Coll. II released in the culture medium” value (1% Ultroser G, culture time 0-12 days (so in the source), 10 μg/ml) was 50.6 ± 4.2 ng/μg DNA/96 h, the “Coll. II released in the culture medium” value (1% Ultroser G, culture time 0-12 days (so in the source), 100 μg/ml) was 61.1 ± 5.2 ng/μg DNA/96 h and the activity at 1 µg/mL (Homo sapiens, Chondrocyte, 288 h, 1% Ultroser G, 1 μg/ml, control = 100, read-out: Cumulative release of coll.II over 12 days, %) was 134%. For the same molecule, the activity at 10 µg/mL (Homo sapiens, Chondrocyte, 288 h, 1% Ultroser G, 10 μg/ml, control = 100, read-out: Cumulative release of coll.II over 12 days, %) was 153%, the activity at 100 µg/mL (Homo sapiens, Chondrocyte, 288 h, 1% Ultroser G, 100 μg/ml, control = 100, read-out: Cumulative release of coll.II over 12 days, %) was 176% and the “Type II collagen in the culture media, effect in words” value (foetal calf serum, 10 and 100 μg/ml) was “increases”. The “Coll. II released in the culture medium” value (foetal calf serum, Table 18, 0-4 days, 10 μg/ml) was 44.1 ± 6.98 ng/μg DNA/96 H, the “Coll. II released in the culture medium” value (foetal calf serum, Table 18, 0-4 days, 100 μg/ml) was 70.7 ± 10.3 ng/μg DNA/96 H and the “Coll. II released in the culture medium” value (foetal calf serum, Table 18, 4-8 days, 10 μg/ml) was 33.5 ± 3.71 ng/μg DNA/96 H. For the same molecule, the “Coll. II released in the culture medium” value (foetal calf serum, Table 18, 4-8 days, 100 μg/ml) was 41.7 ng/μg DNA/96 H, the “Coll. II released in the culture medium” value (foetal calf serum, Table 19, 0-4 days, 10 μg/ml) was 37.9 ± 5.47 ng/μg DNA/96 H and the “Coll. II released in the culture medium” value (foetal calf serum, Table 19, 0-4 days, 100 μg/ml) was 53.2 ± 4.21 ng/μg DNA/96 H. The “Coll. II released in the culture medium” value (foetal calf serum, Table 19, 4-8 days, 10 μg/ml) was 23.3 ± 2.11 ng/μg DNA/96 H, the “Coll. II released in the culture medium” value (foetal calf serum, Table 19, 4-8 days, 100 μg/ml) was 33.5 ng/μg DNA/96 H and the “Coll. II in the clusters” value (foetal calf serum, experiment 397, 4-8 days, 10 μg/ml) was 85.9 ± 14.45 ng/μg DNA. For the same molecule, the “Coll. II in the clusters” value (foetal calf serum, experiment 397, 4-8 days, 100 μg/ml) was 109.8 ng/μg DNA and the “Collagen II in the clusters, effect in words” value (foetal calf serum, experiment 397, 10 and 100 μg/ml) was “An increase in collagen II is observed”.
